Data: patent US8889722B2, “Pharmaceutical composition containing optically active compound having thrombopoietin receptor agonist activity, and intermediate therefor” (Shionogi & Co., Ltd., priority 2007, dated 2014)

Target: T1, human TPO receptor (Homo sapiens, UniProt P40238)
T1 construct: expressed in transfected cells; host or cells: BaF-B03 (mouse pro-B cell line), strain BaF/hTPOR
T1 sequence (P40238 26-635): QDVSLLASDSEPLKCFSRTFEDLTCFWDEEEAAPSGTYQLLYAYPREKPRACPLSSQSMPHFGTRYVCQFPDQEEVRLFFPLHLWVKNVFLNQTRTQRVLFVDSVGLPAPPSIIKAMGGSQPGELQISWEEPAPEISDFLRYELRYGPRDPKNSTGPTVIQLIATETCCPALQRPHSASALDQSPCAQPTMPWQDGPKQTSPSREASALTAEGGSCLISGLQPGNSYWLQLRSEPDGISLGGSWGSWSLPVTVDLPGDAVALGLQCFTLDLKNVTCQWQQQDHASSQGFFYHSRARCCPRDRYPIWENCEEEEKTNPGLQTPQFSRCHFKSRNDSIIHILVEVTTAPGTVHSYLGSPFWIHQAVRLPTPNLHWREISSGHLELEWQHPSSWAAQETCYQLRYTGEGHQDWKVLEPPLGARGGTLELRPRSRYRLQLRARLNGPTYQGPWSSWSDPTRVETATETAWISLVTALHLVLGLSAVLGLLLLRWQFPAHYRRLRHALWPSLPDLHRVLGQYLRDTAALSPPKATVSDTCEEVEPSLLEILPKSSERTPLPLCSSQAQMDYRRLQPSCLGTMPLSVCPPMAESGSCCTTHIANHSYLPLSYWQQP
Assay: TPO receptor responsiveness: proliferation of TPO-dependent BaF/hTPOR cells (WST-1)
Type: cell-based
Conditions: 20 hours culture, WST-1 absorption at 450 nm, concentration exhibiting half-maximum responsiveness of human TPO, read-out: ED50 (the source's name)
Description: TPO receptor responsiveness of the compound represented by the formula (I) was measured using TPO-dependent cell strain BaF/hTPOR made by introducing a human TPO receptor gene into a BaF-B03 cell according to the method described in Collins et al., J. Cell. Physiol., 137: 293-298 (1988). A nucleotide sequence of a gene encoding thrombopoietin receptor is described in Vigon et al., Proc. Natl. Acad. Sci, 89:5640-5644 (1992). […] A BAF/hTPOR cell proliferated in a RPMI medium with 10% WEHI-3 culture solution added thereto was washed with PBS once, suspended in a RPMI medium with no WHEHI-3 culture solution added thereto, and cells were seeded on a 96-well microplate at a 5×10^4/well, and the present compound or TPO was added thereto. After cultured at 37° C. for 20 hours under 5% CO2 atmosphere, a WST-1 reagent (manufactured by Takara Shuzo, Co., Ltd) being a cell proliferation determination reagent was added, and absorption at 450 nm was measured after 4 hours.

Compound	EC50
CCCCCC[C@H](OC)c1cccc(-c2csc(NC(=O)c3cc(Cl)c(/C=C(\C)C(=O)O)c(Cl)c3)n2)c1OC [Compound C-1B, (S)-(E)-3-(2,6-dichloro-4-{4-[2-methyloxy-3-(1-methyloxyheptyl)-phenyl]thiazol-2-ylcarbamoyl}phenyl)-2-methylacrylic acid]	2.08 nM
CCCCCCO[C@@H](C)c1cccc(-c2csc(NC(=O)c3cc(Cl)c(/C=C(\C)C(=O)O)c(Cl)c3)n2)c1OC [Compound C-3B, (S)-(−)-(E)-3-(2,6-dichloro-4-{4-[3-(1-hexyloxyethyl)-2-methyloxyphenyl]thiazol-2-ylcarbamoyl}phenyl)-2-methylacrylic acid]	1.09 nM

More lines, in order of falling EC50, values ahead:

EC50	Compound
3.09 nM	CCCCCC[C@@H](OC)c1cccc(-c2csc(NC(=O)c3cc(Cl)c(/C=C(\C)C(=O)O)c(Cl)c3)n2)c1OC [Compound C-1A, (R)-(E)-3-(2,6-dichloro-4-{4-[2-methyloxy-3-(1-methyloxyheptyl)phenyl]thiazol-2-ylcarbamoyl}phenyl)-2-methylacrylic acid]
1.4 nM	CCCCCCO[C@H](C)c1cccc(-c2csc(NC(=O)c3cc(Cl)c(/C=C(\C)C(=O)O)c(Cl)c3)n2)c1OC [Compound C-3A, (R)-(E)-3-(2,6-dichloro-4-{4-[3-(1-hexyloxyethyl)-2-methyloxyphenyl]thiazol-2-ylcarbamoyl}phenyl)-2-methylacrylic acid]
0.09 nM	CCCO[C@H](c1cccc(-c2csc(NC(=O)c3cc(Cl)c(/C=C(\C)C(=O)O)c(Cl)c3)n2)c1OC)C(C)(C)C [Compound C-9B, (S)-(E)-3-(2,6-dichloro-4-{4-[3-(2,2-dimethyl-1-propyloxypropyl)-2-methyloxyphenyl]thiazol-2-ylcarbamoyl}phenyl)-2-methylacrylic acid]

Test system: not given
Assay: not given
Conditions: not given

melting point	Compound
162 to 164 °C	CCCCCC[C@H](OC)c1cccc(-c2csc(NC(=O)c3cc(Cl)c(/C=C(\C)C(=O)O)c(Cl)c3)n2)c1OC [Compound C-1B, (S)-(E)-3-(2,6-dichloro-4-{4-[2-methyloxy-3-(1-methyloxyheptyl)-phenyl]thiazol-2-ylcarbamoyl}phenyl)-2-methylacrylic acid]
